Laboratory results: paper PMC12388125, “Design, Synthesis, and Pharmacological Activity of the N-(4-(1H-1,2,4-Triazol-1-yl)phenyl)-substituted-amide Derivatives” (Molecules, 2025)
Read-outs that look alike come from different tables or passages of the source.

Tests used:
[1] = system: pentylenetetrazole-induced clonic seizures; test: animal or person; assay type: in vivo, Kunming mice; conditions: for minimal effective dose: Mus musculus, sc, read-out: scPTZ, dose at which at least one of three animals was protected; for minimal effective dose / scPTZ, dose at which at least one of three animals was protected: doses 30, 100, 300 mg/kg; for ED50 (scPTZ) / PI (TD50/ED50) scPTZ: 0.5 h; for ED50 (scPTZ): value (95% CI); for PI (TD50/ED50) scPTZ: Kunming, mouse, in vivo
Method: (§1) Pharmacological tests were performed using two experimental animal models, MES and scPTZ, which were divided into three dosage groups of 30, 100, and 300 mg/kg, and the anticonvulsant activity of the target compounds 6a–m and 9a–g, after 0.5 and 4 h of administration, respectively, were tested. Carbamazepine, which is effective in the MES model, was chosen as a positive control, and ethosuximide, which is effective in the scPTZ model, was chosen as a positive control. […]
The test compound wa s
Absence of clonic spasms indicated a […]

mice [2] = test: Rotarod (ROT) neurotoxicity test; conditions: for NT (neurotoxicity, ROT), dose at which at least one of three animals showed neurotoxicity: doses 100, 300 mg/kg; for TD50 (ROT): 0.5 h, value (95% CI)
Method: The neurotoxicity of the target compounds was tested using the ROT experimental model, which was divided into two dose groups, 100 and 300 mg/kg, and tested after 0.5 and 4 h of administration, respectively.
The neurotoxicity of the target compounds was determined using the ROT experimental model.
The neurotoxicity of the compounds wa s measured in mice using the rotarod test. Mice
we r e trained to stay on an accelerating rotarod (diameter, 3.2 cm) rotating at 10 rpm. Trained
animals we r e injected with the test compounds (i.p.) and neurotoxicity wa s measured as the
inability of the animal to maintain equilibrium on the rod for at least 1 min in each of the

MES-induced seizures = test: animal or person; assay type: in vivo, Kunming mice; conditions: for minimal effective dose: Mus musculus, ip, doses 30, 100, 300 mg/kg, read-out: MES, dose at which at least one of three animals was protected; for ED50 (MES) / PI (TD50/ED50) MES: 0.5 h; for ED50 (MES): value (95% CI); for PI (TD50/ED50) MES: Kunming, mouse, in vivo
Method: as §1
Protection against the spread of
extension component of the seizure. […]

mice [3] = test: Elevated plus maze (EPM) test; assay type: in vivo; conditions: 1 mg/kg, n = 6
Excerpt: The EPM experiment is a method for evaluating whether experimental animals have an anxiety response. The principle is that, in the face of new things, mice will generate curiosity to explore (open arm), while they have a nature of darkness (closed arm), the conflict behavior between the two occurs between exploration and avoidance, resulting in anxiety. Anxious behavior can be evaluated by comparing the retention time of mice in the open and closed arms.
Flumazenil is a selective BZ antagonist with a chemical structure similar to that of BZs, which acts on central benzodiazepine (BZ) receptors and thus blocks the receptors without producing BZ-like effects.
The apparatus consisted of a black acrylic maze with two opposite open arms (50×10 cm) and two opposite closed arms (50×10×40 cm) disposed like a plus sign with a central square of 10 cm2. Entire maze wa s elevated 50 cm above the floor. The test consisted in placing the rat in the central square of the maze facing one closed arm and allowing it to explore during 5 min. This procedure wa s performed in a quiet and dimly illuminated room. The scores analysed we r e the time spent in open and closed arms, and the number of entries to both […]
widely used as an anxiety index (time spent in open arms relative to the time spent in open […]
and closed arms). […]

SMILES	minimal effective dose ([1]; 0.5 h after administration)	minimal effective dose ([1]; 4 h after administration)	NT (neurotoxicity, ROT), dose at which at least one of three animals showed neurotoxicity (mice [2]; 0.5 h after administration)	NT (neurotoxicity, ROT), dose at which at least one of three animals showed neurotoxicity (mice [2]; 4 h after administration)	minimal effective dose (MES-induced seizures; 0.5 h after administration)	minimal effective dose (MES-induced seizures; 4 h after administration)	scPTZ, dose at which at least one of three animals was protected ([1]; 4 h after administration)	ED50 (scPTZ) [1]	PI (TD50/ED50) scPTZ [1]	TD50 (ROT) (mice [2])	ED50 (MES) (MES-induced seizures)	PI (TD50/ED50) MES (MES-induced seizures)	EPM % of time in open arms vs control (mice [3])
O=C(Nc1ccc(-n2cncn2)cc1)c1ccccc1 [Compound 6a, N-(4-(1H-1,2,4-triazol-1-yl)phenyl)benzamide]	100 mg/kg	100 mg/kg	>300 mg/kg	>300 mg/kg	300 mg/kg	300 mg/kg							
O=C(Nc1ccc(-n2cncn2)cc1)c1ccccc1Cl [Compound 6b, N-(4-(1H-1,2,4-triazol-1-yl)phenyl)-2-chlorobenzamide]	100 mg/kg	300 mg/kg	>300 mg/kg	>300 mg/kg	300 mg/kg	100 mg/kg							
O=C(Nc1ccc(-n2cncn2)cc1)c1cccc(Cl)c1 [Compound 6c, N-(4-(1H-1,2,4-triazol-1-yl)phenyl)-3-chlorobenzamide]	100 mg/kg	100 mg/kg	>300 mg/kg	>300 mg/kg	100 mg/kg	300 mg/kg							
O=C(Nc1ccc(-n2cncn2)cc1)c1ccc(Cl)cc1 [Compound 6d, N-(4-(1H-1,2,4-triazol-1-yl)phenyl)-4-chlorobenzamide]	300 mg/kg	> 300 mg/kg	>300 mg/kg	>300 mg/kg	300 mg/kg	300 mg/kg	inactive						
O=C(Nc1ccc(-n2cncn2)cc1)c1ccccc1F [Compound 6e, N-(4-(1H-1,2,4-triazol-1-yl)phenyl)-2-fluorobenzamide]	100 mg/kg	100 mg/kg	>300 mg/kg	>300 mg/kg	100 mg/kg	100 mg/kg							
O=C(Nc1ccc(-n2cncn2)cc1)c1ccc(F)cc1 [Compound 6g, N-(4-(1H-1,2,4-triazol-1-yl)phenyl)-4-fluorobenzamide]	30 mg/kg	100 mg/kg	>300 mg/kg	>300 mg/kg	30 mg/kg	30 mg/kg		31.5 mg/kg	13.6	429.1 (466.4–394.7) mg	13.7 mg/kg	31.3	
O=C(Nc1ccc(-n2cncn2)cc1)c1ccccc1C(F)(F)F [Compound 6h, N-(4-(1H-1,2,4-triazol-1-yl)phenyl)-2-(trifluoromethyl)benzamide]	300 mg/kg	> 300 mg/kg	>300 mg/kg	>300 mg/kg	100 mg/kg	300 mg/kg	inactive						
O=C(Nc1ccc(-n2cncn2)cc1)c1cccc(C(F)(F)F)c1 [Compound 6i, N-(4-(1H-1,2,4-triazol-1-yl)phenyl)-3-(trifluoromethyl)benzamide]	30 mg/kg	100 mg/kg	>300 mg/kg	>300 mg/kg	30 mg/kg	30 mg/kg		22.8 mg/kg	16.7	381.4 (414.6–350.8) mg	21.9 mg/kg	17.4	
O=C(Nc1ccc(-n2cncn2)cc1)c1ccc(C(F)(F)F)cc1 [Compound 6j, N-(4-(1H-1,2,4-triazol-1-yl)phenyl)-4-(trifluoromethyl)benzamide]	100 mg/kg	100 mg/kg	>300 mg/kg	>300 mg/kg	100 mg/kg	300 mg/kg							
Cc1ccccc1C(=O)Nc1ccc(-n2cncn2)cc1 [Compound 6k, N-(4-(1H-1,2,4-triazol-1-yl)phenyl)-2-methylbenzamide]	100 mg/kg	300 mg/kg	>300 mg/kg	>300 mg/kg	30 mg/kg	100 mg/kg							
Cc1ccc(C(=O)Nc2ccc(-n3cncn3)cc2)cc1 [Compound 6m, N-(4-(1H-1,2,4-triazol-1-yl)phenyl)-4-methylbenzamide]	100 mg/kg	300 mg/kg	>300 mg/kg	>300 mg/kg	300 mg/kg	300 mg/kg							
CCC(=O)Nc1ccc(-n2cncn2)cc1 [Compound 9a, N-(4-(1H-1,2,4-triazol-1-yl)phenyl)propionamide]	100 mg/kg	100 mg/kg	>300 mg/kg	>300 mg/kg	100 mg/kg	300 mg/kg							
CCCC(=O)Nc1ccc(-n2cncn2)cc1 [Compound 9b, N-(4-(1H-1,2,4-triazol-1-yl)phenyl)butyramide]	30 mg/kg	100 mg/kg	300 mg/kg	>300 mg/kg	30 mg/kg	100 mg/kg							
CCCCC(=O)Nc1ccc(-n2cncn2)cc1 [Compound 9c, N-(4-(1H-1,2,4-triazol-1-yl)phenyl)pentanamide]	30 mg/kg	100 mg/kg	300 mg/kg	>300 mg/kg	30 mg/kg	30 mg/kg		35.5 mg/kg	7.3	260.0 (282.7–239.2) mg	17.3 mg/kg	15.0	
CCCCCC(=O)Nc1ccc(-n2cncn2)cc1 [Compound 9d, N-(4-(1H-1,2,4-triazol-1-yl)phenyl)hexanamide]	100 mg/kg	100 mg/kg	>300 mg/kg	>300 mg/kg	30 mg/kg	30 mg/kg							
CCCCCCC(=O)Nc1ccc(-n2cncn2)cc1 [Compound 9e, N-(4-(1H-1,2,4-triazol-1-yl)phenyl)heptanamide]	300 mg/kg	> 300 mg/kg	>300 mg/kg	>300 mg/kg	100 mg/kg	300 mg/kg							
CCCCCCCC(=O)Nc1ccc(-n2cncn2)cc1 [Compound 9f, N-(4-(1H-1,2,4-triazol-1-yl)phenyl)octanamide]	300 mg/kg	> 300 mg/kg	>300 mg/kg	>300 mg/kg	100 mg/kg	300 mg/kg							
CCCCCCCCC(=O)Nc1ccc(-n2cncn2)cc1 [Compound 9g, N-(4-(1H-1,2,4-triazol-1-yl)phenyl)nonanamide]	300 mg/kg	> 300 mg/kg	>300 mg/kg	>300 mg/kg	300 mg/kg	300 mg/kg							
CN1C(=O)CN=C(c2ccccc2)c2cc(Cl)ccc21 [Diazepam, reference compound]													showed a significant difference
